Tests used:
isolated sGC = target: T1, isolated sGC (Bos taurus, UniProt P16068); conditions: bare ferrohaem, in contrast to NO-ferrohaem; cited from earlier work
T1 construct: host or cells: bovine lung (from a cited title)
T1 sequence (P16068 1-619): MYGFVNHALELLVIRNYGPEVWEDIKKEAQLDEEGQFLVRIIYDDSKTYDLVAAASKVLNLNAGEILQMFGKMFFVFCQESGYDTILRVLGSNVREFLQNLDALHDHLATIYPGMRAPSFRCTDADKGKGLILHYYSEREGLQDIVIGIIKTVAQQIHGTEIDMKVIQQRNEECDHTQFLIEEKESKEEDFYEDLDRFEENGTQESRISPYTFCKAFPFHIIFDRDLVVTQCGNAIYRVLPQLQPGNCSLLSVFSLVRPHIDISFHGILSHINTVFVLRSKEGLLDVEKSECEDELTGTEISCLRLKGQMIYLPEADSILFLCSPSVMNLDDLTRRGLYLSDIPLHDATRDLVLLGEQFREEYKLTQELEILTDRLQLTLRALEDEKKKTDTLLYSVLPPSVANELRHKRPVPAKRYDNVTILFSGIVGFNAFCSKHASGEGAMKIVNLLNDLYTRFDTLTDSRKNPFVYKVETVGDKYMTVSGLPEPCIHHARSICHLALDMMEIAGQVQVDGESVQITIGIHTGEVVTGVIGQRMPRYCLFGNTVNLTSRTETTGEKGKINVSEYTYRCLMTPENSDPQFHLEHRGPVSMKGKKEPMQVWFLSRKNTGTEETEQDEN
T1 sequence (P19687 1-691 partner): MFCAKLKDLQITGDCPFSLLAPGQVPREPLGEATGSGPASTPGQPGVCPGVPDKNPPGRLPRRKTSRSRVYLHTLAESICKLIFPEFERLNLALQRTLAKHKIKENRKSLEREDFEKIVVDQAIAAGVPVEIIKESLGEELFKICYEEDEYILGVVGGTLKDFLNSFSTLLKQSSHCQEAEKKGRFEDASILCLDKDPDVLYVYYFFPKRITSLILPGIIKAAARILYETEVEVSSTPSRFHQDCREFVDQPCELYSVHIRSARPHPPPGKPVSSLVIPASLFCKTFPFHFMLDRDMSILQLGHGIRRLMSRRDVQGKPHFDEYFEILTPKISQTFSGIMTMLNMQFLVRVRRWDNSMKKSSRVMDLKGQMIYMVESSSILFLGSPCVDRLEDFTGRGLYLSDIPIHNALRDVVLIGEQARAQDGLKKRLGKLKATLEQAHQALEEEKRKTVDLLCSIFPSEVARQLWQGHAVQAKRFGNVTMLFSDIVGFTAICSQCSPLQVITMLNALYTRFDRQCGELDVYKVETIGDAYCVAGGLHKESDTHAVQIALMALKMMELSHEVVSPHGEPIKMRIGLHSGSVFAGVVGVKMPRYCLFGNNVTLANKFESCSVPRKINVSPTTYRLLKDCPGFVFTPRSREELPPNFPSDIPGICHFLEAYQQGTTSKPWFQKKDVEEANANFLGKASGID

[1] = tested on: human platelet-rich plasma (PRP); test: U46619-induced platelet aggregation in platelet-rich plasma (aggregometer); type: cell-based
Method: Human venous blood was collected into a plastic polypropylene syringe containing sodium citrate. […] Platelet-rich-plasma (PRP) was prepared by centrifugation of the blood at 180g for 10 minutes at room temperature. The cloudy supernatant containing platelets was carefully removed with a pipette and transferred into a clean polypropylene tube and capped. Platelets were used for the experiments within 3 hr after blood collection. Platelet function studies were performed using a Dual Channel Aggregometer (Chronolog, Havertown). The PRP was adjusted to a platelet count of 200-300x 10^6/ml. Platelet aggregation was induced by the addition of a synthetic thromboxane A2 receptor agonist, U46619 (Cayman Chemical, Ann Arbor). PRP was placed in the aggregometer cuvette and continuously stirred at the rate of 1000 rpm. Platelet aggregation was determined by measuring the change in the optical density after addition of 1µM U46619. […]

anesthetized Wistar rat = test: blood pressure study, subcutaneous injection; type: in vivo; conditions: after injection of sGC inhibitor methylene blue; Fig. 8
Method: For the pilot experiment, a male Wistar rat weighing 350g from Janvier Labs (Le Genest-Saint-Isle, France) was used. Rat was anaesthetised with isoflurane 1-2% (Baxter S.A.S, Maurepas, France) and analgesia was ensured by sufentanil (Mylan, Pittsburgh PA, USA) (0.1 µg/kg of body weight) administered subcutaneously. Animal was tracheotomised and lungs ventilated throughout the experiment. The ventilator (Harvard Rodent Ventilator 683, Harvard Instruments, South Natick, MA, USA) was set to maintain a PaCO2 of 40 mmHg and oxygen was added to maintain a PaO2 of 100 mmHg. The left femoral artery was used to measure mean arterial pressure (MAP) and heart rate (HR). The rectal temperature was continuously monitored. The NO-ferrohaem was injected at dose 2µmol/kg (s.c.) before and after the injection of methylene blue (1 µmol/kg; s.c.). In the end of experiment rat was euthanized using the lethal dose of Pentothal (100 mg/kg; i.v.).

anesthetized rats = test: blood pressure after intravenous bolus injection; type: in vivo; conditions: 10 nmol/kg
mouse femoral artery = test: isometric tension study, wire myograph, pre-contracted artery rings; conditions: Fig. 7
Method: For the pilot experiment a male Swiss mouse (35 g) was sacrificed under ether anaesthesia. Femoral artery was isolated and cleaned from the adhering fat and connective tissue. Artery rings (2 mm) with endothelium were mounted in the organ chambers filled with Krebs solution continuously bubbled with 95% 02/ 5% CO2 at 37°C. The composition of the solution was as following: 119 mM NaCl, 4.7 mM KCI, 14.9 mM NaHCO3, 1.2 mM MgSO4.7H2O, 2.5 mM CaCl2, 1.18 mM KH2PO4, and 5.5 mM glucose; pH 7.4. Vascular reactivity was measured by the monitoring the changes in isometric tension using a wire myograph (Danish Myo Technology, Arhus, Denmark). After pre-contraction of arterial rings with 1µM 5-HT (serotonin; Sigma-Aldrich), the cumulative concentrations of NO-ferrohaem were added. In the end of experiment, an inhibitor of the soluble guanylate cyclase (ODQ; 1µM) was added.

[2] = tested on: isolated rat mesenteric arteries; test: vasodilation in isolated mesenteric arteries

Structure (SMILES) | effect on basal activity of isolated sGC (isolated sGC) | U46619-induced platelet aggregation ([1]; 1 nM, 10nM or 100nM added 30 seconds before 1µM U46619, Fig. 6) | inhibition of thromboxane-induced platelet aggregation ([1]; at low nM concentrations, human platelet-rich plasma) | effect of methylene blue on hypotensive activity (anesthetized Wistar rat) | blood pressure effect (anesthetized rats) | relaxation of pre-contracted arteries (mouse femoral artery; 5-HT (1µM)-pre-contracted, 100nM-100µM concentration range) | effect of ODQ on the NO-ferrohaem-induced relaxation (mouse femoral artery; plus sGC inhibitor ODQ (1µM)) | vasodilating activity [2]
C=Cc1c(C)c2[n]3c1C=C1N=C(C=C4N=C(C=c5c(C)c(C=C)c([n]5[Fe]3)=C2)C(C)=C4CCC(=O)O)C(CCC(=O)O)=C1C [ferrohaem] | inhibits the basal activity of isolated sGC |  |  |  |  |  |  | 
C=Cc1c(C)c2[n]3c1C=C1N=C(C=C4N=C(C=c5c(C)c(C=C)c([n]5[Fe]3[N]=O)=C2)C(C)=C4CCC(=O)O)C(CCC(=O)O)=C1C [NO-ferrohaem, nitrosylated ferrous protoporphyrin IX] |  | concentration-dependently prevented the aggregation | efficiently inhibits | prevented this NO-ferrohaem activity | sGC-inhibitor-sensitive hypotension | concentration-dependent relaxation | completely reversed | direct long-lasting vasodilating activity
